From the Kinase Knowledgebase extract (Sharma et al. 2016) come the findings set out here.

The IC50 is the concentration needed to halve the response being measured. A high value points to weaker potency. In general, Ki refers to a measure of affinity in units of concentration, obtained from inhibition or displacement.

Assay [1] concerns the target EGFR (UniProt P00533).
The target of assay [2] is EGFR (UniProt P00533). The source holds these as a separate data set.
Chain of EGFR (P00533 whole entry, looked up): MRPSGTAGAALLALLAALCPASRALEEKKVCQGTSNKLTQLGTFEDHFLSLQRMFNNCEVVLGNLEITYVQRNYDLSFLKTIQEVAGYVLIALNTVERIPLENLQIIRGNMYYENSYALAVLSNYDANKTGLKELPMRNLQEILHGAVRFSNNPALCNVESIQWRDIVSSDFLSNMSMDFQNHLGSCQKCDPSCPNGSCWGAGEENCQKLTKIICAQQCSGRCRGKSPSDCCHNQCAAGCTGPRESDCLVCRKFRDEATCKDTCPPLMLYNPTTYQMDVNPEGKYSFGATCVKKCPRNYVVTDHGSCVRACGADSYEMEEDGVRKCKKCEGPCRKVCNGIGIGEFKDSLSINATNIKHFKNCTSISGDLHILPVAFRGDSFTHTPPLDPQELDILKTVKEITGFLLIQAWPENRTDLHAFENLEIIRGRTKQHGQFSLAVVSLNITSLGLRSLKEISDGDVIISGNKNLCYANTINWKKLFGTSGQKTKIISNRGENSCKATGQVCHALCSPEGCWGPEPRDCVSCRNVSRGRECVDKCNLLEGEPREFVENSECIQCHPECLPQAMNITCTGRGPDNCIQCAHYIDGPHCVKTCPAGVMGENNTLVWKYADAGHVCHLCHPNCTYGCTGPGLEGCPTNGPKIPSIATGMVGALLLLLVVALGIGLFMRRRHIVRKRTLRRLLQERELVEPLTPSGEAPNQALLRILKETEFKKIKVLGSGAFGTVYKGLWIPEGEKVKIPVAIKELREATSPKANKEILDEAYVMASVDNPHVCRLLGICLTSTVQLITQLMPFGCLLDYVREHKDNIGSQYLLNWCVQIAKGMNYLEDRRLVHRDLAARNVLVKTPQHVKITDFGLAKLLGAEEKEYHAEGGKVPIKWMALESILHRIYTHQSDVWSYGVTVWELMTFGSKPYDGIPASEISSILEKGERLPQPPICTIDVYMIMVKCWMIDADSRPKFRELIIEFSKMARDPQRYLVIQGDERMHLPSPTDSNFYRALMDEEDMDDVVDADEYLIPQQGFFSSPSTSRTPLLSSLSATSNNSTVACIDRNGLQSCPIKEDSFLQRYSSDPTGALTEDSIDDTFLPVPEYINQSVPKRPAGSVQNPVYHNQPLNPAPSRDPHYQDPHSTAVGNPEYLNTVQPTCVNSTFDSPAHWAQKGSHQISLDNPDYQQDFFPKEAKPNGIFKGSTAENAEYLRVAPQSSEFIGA

For the compound `N#CC(C#N)=Cc1cc(O)c(O)c(O)c1`, the IC50 at EGFR [1] turned out to be 15 µM. Further, on EGFR [2], the Ki stood at 1 µM.

At EGFR [1], `COc1cc(C=C(C#N)C#N)cc(O)c1O` displayed an IC50 of 20 µM. On EGFR [1], `N#C/C(=C\c1ccc(O)c(O)c1)C(N)=O` showed an IC50 of 4 µM. This IC50 is about 5-fold lower than that of the compound before. On EGFR [2], `O=C(O)/C=C/c1cc(O)ccc1O` registered an IC50 of 4.4 µM. `N#C/C(=C\c1ccc([N+](=O)[O-])cc1)C(=O)O`: the Ki on EGFR [2] was found to be 1300 µM. In turn, `N#C/C(=C\c1ccc(O)c(O)c1)C(=O)O` displayed an IC50 on EGFR [1] of 400 µM. Still for that read-out and setting: the figure for `N#CC(C#N)=C(O)c1cc(O)c(O)c(O)c1` is 35 µM.

Turning to `N#CC(C#N)=Cc1cc(O)cc(O)c1`, the IC50 on EGFR [1] came out at 160 µM. This compound also displayed a Ki at EGFR [2] of 10 µM.

`N#CC(C#N)=C(N)/C(C#N)=C/c1ccc(O)c(O)c1` came in with an IC50 on EGFR [1] of 1.8 µM. This lies in the single-digit micromolar range.
